From the NIST ThermoML archive (doi:10.1021/acs.jced.8b00547)

Legend:
[1] = xn = mol fraction of the nth substance listed; conditions: 101 kPa, Liquid; for speed of sound: Single path-length method; for mass density: Vibrating tube method
[2] = refractive index (Na D-line) (dimensionless); xn = mol fraction of the nth substance listed; conditions: 101 kPa, Liquid, Standard Abbe refractometry

CCCC(C)=O [pentan-2-one] + CC(C)O
Conditions | mass density, [1] [kg/m3] | refractive index, [2] | speed of sound, [1] [m/s]
298.15 K, x1 = 0.0978 | 782.98 | 1.3767 | 1146.5
298.15 K, x1 = 0.2344 | 785.78 | 1.3786 | 1157.5
298.15 K, x1 = 0.3338 | 787.81 | 1.37996 | 1165.5
298.15 K, x1 = 0.4126 | 789.5 | 1.38098 | 1171.7
298.15 K, x1 = 0.4972 | 791.25 | 1.38207 | 1178.4
298.15 K, x1 = 0.6036 | 793.49 | 1.3834 | 1186.6
298.15 K, x1 = 0.7125 | 795.82 | 1.38472 | 1195
298.15 K, x1 = 0.8043 | 797.8 | 1.3858 | 1202
298.15 K, x1 = 0.9009 | 799.87 | 1.3869 | 1209.1
298.15 K, x1 = 1 | 802.09 | 1.38782 | 1216
308.15 K, x1 = 0.0978 | 774.13 | 1.3723 | 1110.6
308.15 K, x1 = 0.2344 | 776.72 | 1.37412 | 1120.8
308.15 K, x1 = 0.3338 | 778.65 | 1.3754 | 1128.1
308.15 K, x1 = 0.4126 | 780.23 | 1.37637 | 1133.8
308.15 K, x1 = 0.4972 | 781.85 | 1.37741 | 1139.9
308.15 K, x1 = 0.6036 | 783.93 | 1.37867 | 1147.5
308.15 K, x1 = 0.7125 | 786.12 | 1.37993 | 1155.2
308.15 K, x1 = 0.8043 | 788.05 | 1.38098 | 1161.6
308.15 K, x1 = 0.9009 | 790.07 | 1.382 | 1168.2
308.15 K, x1 = 1 | 792.32 | 1.38284 | 1174.4
318.15 K, x1 = 0.0978 | 764.87 | 1.3677 | 1074.9
318.15 K, x1 = 0.2344 | 767.32 | 1.36948 | 1084.2
318.15 K, x1 = 0.3338 | 769.16 | 1.37072 | 1090.9
318.15 K, x1 = 0.4126 | 770.69 | 1.37167 | 1096.1
318.15 K, x1 = 0.4972 | 772.19 | 1.37268 | 1101.7
318.15 K, x1 = 0.6036 | 774.18 | 1.3739 | 1108.7
318.15 K, x1 = 0.7125 | 776.29 | 1.37511 | 1115.7
318.15 K, x1 = 0.8043 | 778.16 | 1.3761 | 1121.5
318.15 K, x1 = 0.9009 | 780.17 | 1.37708 | 1127.6
318.15 K, x1 = 1 | 782.44 | 1.37782 | 1133.3
328.15 K, x1 = 0.0978 | 755.34 | 1.36295 | 1039
328.15 K, x1 = 0.2344 | 757.63 | 1.36471 | 1047.7
328.15 K, x1 = 0.3338 | 759.42 | 1.36591 | 1054
328.15 K, x1 = 0.4126 | 760.87 | 1.36686 | 1058.8
328.15 K, x1 = 0.4972 | 762.28 | 1.36785 | 1064.1
328.15 K, x1 = 0.6036 | 764.21 | 1.36905 | 1070.6
328.15 K, x1 = 0.7125 | 766.2 | 1.37023 | 1077.2
328.15 K, x1 = 0.8043 | 768.09 | 1.3712 | 1082.6
328.15 K, x1 = 0.9009 | 770.12 | 1.37215 | 1088.3
328.15 K, x1 = 1 | 772.43 | 1.3728 | 1093.6
338.15 K, x1 = 0.0978 | 744.73 | 1.3579 | 1003.3
338.15 K, x1 = 0.2344 | 746.99 | 1.35966 | 1011.5
338.15 K, x1 = 0.3338 | 748.79 | 1.36085 | 1017.3
338.15 K, x1 = 0.4126 | 750.28 | 1.36181 | 1021.8
338.15 K, x1 = 0.4972 | 751.71 | 1.3628 | 1026.7
338.15 K, x1 = 0.6036 | 753.67 | 1.36398 | 1032.7
338.15 K, x1 = 0.7125 | 755.74 | 1.36515 | 1038.8
338.15 K, x1 = 0.8043 | 757.71 | 1.36612 | 1043.8
338.15 K, x1 = 0.9009 | 759.83 | 1.36705 | 1049
338.15 K, x1 = 1 | 762.27 | 1.36764 | 1053.8

CCCC(C)=O [pentan-2-one] + CCC(C)O
Conditions | mass density, [1] [kg/m3] | refractive index, [2] | speed of sound, [1] [m/s]
298.15 K, x1 = 0.1227 | 801.36 | 1.39423 | 1212.6
298.15 K, x1 = 0.2361 | 800.45 | 1.39353 | 1213.1
298.15 K, x1 = 0.3467 | 800.01 | 1.3928 | 1213.5
298.15 K, x1 = 0.4522 | 799.88 | 1.39205 | 1214
298.15 K, x1 = 0.5521 | 799.79 | 1.39133 | 1214.3
298.15 K, x1 = 0.6518 | 799.88 | 1.39059 | 1214.7
298.15 K, x1 = 0.744 | 800.22 | 1.38988 | 1215.1
298.15 K, x1 = 0.8299 | 800.65 | 1.38922 | 1215.4
298.15 K, x1 = 0.919 | 801.23 | 1.38853 | 1215.7
298.15 K, x1 = 1 | 802.09 | 1.38782 | 1216
308.15 K, x1 = 0.1227 | 792.32 | 1.38958 | 1175.7
308.15 K, x1 = 0.2361 | 791.24 | 1.38887 | 1175.5
308.15 K, x1 = 0.3467 | 790.78 | 1.38809 | 1175.4
308.15 K, x1 = 0.4522 | 790.51 | 1.38731 | 1175.3
308.15 K, x1 = 0.5521 | 790.25 | 1.38655 | 1175.2
308.15 K, x1 = 0.6518 | 790.23 | 1.38577 | 1175
308.15 K, x1 = 0.744 | 790.31 | 1.38503 | 1174.9
308.15 K, x1 = 0.8299 | 790.62 | 1.38434 | 1174.7
308.15 K, x1 = 0.919 | 791.25 | 1.38358 | 1174.6
308.15 K, x1 = 1 | 792.32 | 1.38284 | 1174.4
318.15 K, x1 = 0.1227 | 783.39 | 1.38489 | 1138.5
318.15 K, x1 = 0.2361 | 782.07 | 1.38415 | 1137.9
318.15 K, x1 = 0.3467 | 781.42 | 1.38335 | 1137.2
318.15 K, x1 = 0.4522 | 780.93 | 1.38254 | 1136.6
318.15 K, x1 = 0.5521 | 780.55 | 1.38177 | 1136.1
318.15 K, x1 = 0.6518 | 780.41 | 1.38095 | 1135.5
318.15 K, x1 = 0.744 | 780.42 | 1.38018 | 1134.9
318.15 K, x1 = 0.8299 | 780.73 | 1.37943 | 1134.4
318.15 K, x1 = 0.919 | 781.32 | 1.3786 | 1133.8
318.15 K, x1 = 1 | 782.44 | 1.37782 | 1133.3
328.15 K, x1 = 0.1227 | 773.65 | 1.37968 | 1101
328.15 K, x1 = 0.2361 | 772.15 | 1.37897 | 1100.1
328.15 K, x1 = 0.3467 | 771.4 | 1.37819 | 1099.2
328.15 K, x1 = 0.4522 | 770.91 | 1.3774 | 1098.3
328.15 K, x1 = 0.5521 | 770.35 | 1.37666 | 1097.5
328.15 K, x1 = 0.6518 | 770.02 | 1.37589 | 1096.6
328.15 K, x1 = 0.744 | 770.12 | 1.37513 | 1095.8
328.15 K, x1 = 0.8299 | 770.56 | 1.37437 | 1095.1
328.15 K, x1 = 0.919 | 771.22 | 1.37356 | 1094.3
328.15 K, x1 = 1 | 772.43 | 1.3728 | 1093.6
338.15 K, x1 = 0.1227 | 763.26 | 1.37559 | 1063
338.15 K, x1 = 0.2361 | 761.48 | 1.37472 | 1061.8
338.15 K, x1 = 0.3467 | 760.59 | 1.37383 | 1060.7
338.15 K, x1 = 0.4522 | 760.08 | 1.37293 | 1059.6
338.15 K, x1 = 0.5521 | 759.46 | 1.37206 | 1058.6
338.15 K, x1 = 0.6518 | 759.14 | 1.37116 | 1057.6
338.15 K, x1 = 0.744 | 759.29 | 1.37027 | 1056.6
338.15 K, x1 = 0.8299 | 759.87 | 1.36944 | 1055.7
338.15 K, x1 = 0.919 | 760.73 | 1.36852 | 1054.8
338.15 K, x1 = 1 | 762.27 | 1.36764 | 1053.8
